Data as given in patent US20080026996A1, “Selective Vpac2 Receptor Reptide Agonists” (ELI LILLY AND COMPANY, priority 2004, published 2008).
Where a SMILES comes first, the peptide text is derived from it. Where no end group is shown, it is not given here. [ ]: non-standard residue; d: D form. The star is where a group is joined. Hexanoyl = CCCCCC(=O)*; Aib = CC(C)(N)C(=O)O; Mpa = O=C(O)CCS

Legend:
human VPAC2 [1] = molecular target: T1, human VPAC2 (Homo sapiens, UniProt P41587); test: Alpha screen cAMP in vitro potency, human VPAC2 receptor; assay type: cell-based; details: cAMP generation; single result from two analyses performed in a single run; read-out: Human VPAC2 Receptor: Alpha Screen EC50
T1 construct: expressed in transfected cells
T1 sequence (P41587 24-438): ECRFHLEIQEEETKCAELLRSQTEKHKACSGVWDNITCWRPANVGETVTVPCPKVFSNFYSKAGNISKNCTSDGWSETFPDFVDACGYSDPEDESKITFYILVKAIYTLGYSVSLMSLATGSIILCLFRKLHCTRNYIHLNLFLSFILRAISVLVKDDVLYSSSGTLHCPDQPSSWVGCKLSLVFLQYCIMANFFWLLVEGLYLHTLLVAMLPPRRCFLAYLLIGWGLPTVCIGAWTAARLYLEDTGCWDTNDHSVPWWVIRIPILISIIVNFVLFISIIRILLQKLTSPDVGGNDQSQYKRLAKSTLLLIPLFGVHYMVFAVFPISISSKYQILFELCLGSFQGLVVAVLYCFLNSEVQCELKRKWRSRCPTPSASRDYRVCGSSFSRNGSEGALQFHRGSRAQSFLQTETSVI
Procedure, shortened: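 Cells were detached with enzyme-free dissociation buffer, washed into stimulation buffer and used at 50,000 cells per data point. Stimuli and AlphaScreen acceptor beads were added for 60 minutes, then lysis buffer with donor beads for 60 to 120 minutes; the AlphaScreen signal reports intracellular cAMP.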

[2] = Rat serum stability studies (remaining active peptide by DiscoveRx cAMP on CHO-VPAC2 cells); assay type: in vitro ADME
Procedure: Store the aliquot with aprotinin at 4° C. Store the aliquot without aprotinin at 37° C. […] […] Incubate in room temperature for 30 minutes. Remove the supernatant. […] Incubate on the shaker (300 rpm) for 1 hour. Proceed as normal with the DiscoveRx kit. Include cAMP standards in column 12. Determine EC50 values from the cAMP assay data.

human VPAC1 = molecular target: T2, human VPAC1 (Homo sapiens, UniProt P32241); test: Filter binding assay, membranes of cells transiently transfected with human VPAC1, 125I-labeled VIP tracer (Table 2); set-up: expressed in transfected cells; details: read-out: Human VPAC1 Receptor Binding
T2 sequence (P32241 31-457): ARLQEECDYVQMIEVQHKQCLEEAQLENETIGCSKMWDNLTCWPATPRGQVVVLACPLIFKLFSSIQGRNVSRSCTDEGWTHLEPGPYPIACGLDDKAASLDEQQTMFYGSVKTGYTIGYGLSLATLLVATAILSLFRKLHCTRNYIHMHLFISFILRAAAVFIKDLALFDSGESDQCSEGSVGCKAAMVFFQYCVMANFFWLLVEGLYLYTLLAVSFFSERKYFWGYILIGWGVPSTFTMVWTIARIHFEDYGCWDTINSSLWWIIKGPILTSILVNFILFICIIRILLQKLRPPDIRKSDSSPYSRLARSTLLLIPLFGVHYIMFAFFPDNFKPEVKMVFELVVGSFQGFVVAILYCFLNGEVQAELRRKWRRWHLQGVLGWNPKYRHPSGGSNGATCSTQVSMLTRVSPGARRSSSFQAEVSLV
Procedure, shortened: (§1)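 Radioligand displacement was measured with 2.5 μg membrane protein per well and roughly 40000 cpm of iodinated tracer. After a 1-hour incubation, bound and free label were separated on BSA-blocked glass-fibre filters and quantified by scintillation.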

human VPAC2 [3] = molecular target: T1, human VPAC2; test: Filter binding assay, membranes of stable VPAC2 cell line, 125I-labeled VIP tracer (Table 2); details: read-out: Human VPAC2 Receptor Binding
Procedure, shortened: as §1

human PAC1 = molecular target: T3, human PAC1 (Homo sapiens, UniProt P41586); test: Filter binding assay, membranes of cells transiently transfected with human PAC1, 125I-labeled PACAP-27 tracer (Table 2); set-up: expressed in transfected cells; details: read-out: Human PAC1 Receptor Binding
T3 sequence (P41586 21-468): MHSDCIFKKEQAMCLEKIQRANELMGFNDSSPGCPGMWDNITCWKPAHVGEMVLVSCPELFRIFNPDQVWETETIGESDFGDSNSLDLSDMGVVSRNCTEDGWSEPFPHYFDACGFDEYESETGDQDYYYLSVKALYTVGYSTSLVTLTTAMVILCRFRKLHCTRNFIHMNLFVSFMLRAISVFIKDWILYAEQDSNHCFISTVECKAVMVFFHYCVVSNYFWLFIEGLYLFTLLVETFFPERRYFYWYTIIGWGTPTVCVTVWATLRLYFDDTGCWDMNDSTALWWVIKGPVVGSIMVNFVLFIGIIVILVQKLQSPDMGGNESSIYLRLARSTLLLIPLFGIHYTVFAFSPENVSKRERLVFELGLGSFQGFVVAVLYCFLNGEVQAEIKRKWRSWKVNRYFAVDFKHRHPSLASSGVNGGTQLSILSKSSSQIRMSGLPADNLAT
Procedure, shortened: as §1

| Compound | EC50 (human VPAC2 [1]) [nM] | Rat Serum Stability (estimated purity in % after 18 hours) [2] [%] | IC50 (human VPAC1) [nM] | IC50 (human VPAC2 [3]) [nM] | IC50 (human PAC1) [nM] |
| --- | --- | --- | --- | --- | --- |
| [Mpa]HSDAVFTDNYTRLLAKLALQKYLQSIKNKRYGGPSSGAPPPS [Agonist P205] | 1.14 | 35.02 |  |  |  |
| CCCCCC(=O)N[C@@H](Cc1c[nH]cn1)C(=O)N[C@@H](CO)C(=O)N[C@@H](CC(=O)O)C(=O)N[C@@H](C)C(=O)N[C@H](C(=O)N[C@@H](Cc1ccccc1)C(=O)N[C@H](C(=O)N[C@@H](CC(=O)O)C(=O)N[C@@H](CC(N)=O)C(=O)N[C@@H](Cc1ccc(O)cc1)C(=O)N[C@H](C(=O)N[C@@H](C)C(=O)N[C@@H](CC(C)C)C(=O)N[C@@H](CCCNC(=N)N)C(=O)NC(C)(C)C(=O)N[C@@H](CCC(N)=O)C(=O)N[C@H](C(=O)N[C@@H](C)C(=O)N[C@@H](C)C(=O)NC(C)(C)C(=O)N[C@@H](CCCCN)C(=O)N[C@@H](Cc1ccc(O)cc1)C(=O)N[C@@H](CC(C)C)C(=O)N[C@@H](CCC(N)=O)C(=O)N[C@@H](CO)C(=O)N[C@H](C(=O)N[C@@H](CCCN)C(=O)N[C@@H](CC(N)=O)C(=O)N[C@@H](CCCN)C(=O)NCC(=O)NCC(=O)N1CCC[C@H]1C(=O)N[C@@H](CO)C(=O)N[C@@H](CO)C(=O)NCC(=O)N[C@@H](C)C(=O)N1CCC[C@H]1C(=O)N1CCC[C@H]1C(=O)N1CCC[C@H]1C(=O)N[C@@H](CO)C(=O)O)[C@@H](C)CC)C(C)C)[C@@H](C)O)[C@@H](C)O)C(C)C [Agonist P366] | 2.6 | 92.00 |  |  |  |
| CCCCCC(=O)N[C@@H](Cc1c[nH]cn1)C(=O)N[C@@H](CO)C(=O)N[C@@H](CC(=O)O)C(=O)N[C@@H](C)C(=O)N[C@H](C(=O)N[C@@H](Cc1ccccc1)C(=O)N[C@H](C(=O)N[C@@H](CC(=O)O)C(=O)N[C@@H](CC(N)=O)C(=O)N[C@@H](Cc1ccc(O)cc1)C(=O)N[C@H](C(=O)N[C@@H](CCCNC(=N)N)C(=O)N[C@@H](CC(C)C)C(=O)N[C@@H](CCCNC(=N)N)C(=O)NC(C)(C)C(=O)N[C@@H](CCC(N)=O)C(=O)N[C@H](C(=O)N[C@@H](C)C(=O)N[C@@H](C)C(=O)NC(C)(C)C(=O)N[C@@H](CCCCN)C(=O)N[C@@H](Cc1ccc(O)cc1)C(=O)N[C@@H](CC(C)C)C(=O)N[C@@H](CCC(N)=O)C(=O)N[C@@H](CO)C(=O)N[C@H](C(=O)N[C@@H](CCCN)C(=O)N[C@@H](CCC(N)=O)C(=O)N[C@@H](CCCN)C(=O)NCC(=O)NCC(=O)N1CCC[C@H]1C(=O)N[C@@H](CO)C(=O)N[C@@H](CO)C(=O)NCC(=O)N[C@@H](C)C(=O)N1CCC[C@H]1C(=O)N1CCC[C@H]1C(=O)N1CCC[C@H]1C(=O)N[C@@H](CO)C(=O)O)[C@@H](C)CC)C(C)C)[C@@H](C)O)[C@@H](C)O)C(C)C [Agonist P356] |  | 45.17 |  |  |  |
| Hexanoyl-HSDAVFTDNYTRL[Aib]KQVAAKQYLQSIKNKRYGGPSSGAPPPS [Agonist P249] |  | 12.9 |  |  |  |
| Hexanoyl-HSDA[dV]FTDNYTRLRKQVAAKKYLQSIKNKRYGGPSSGAPPPS [Agonist P210] |  | <0.91 | 395 | 0.68 |  |
| Hexanoyl-HSDLVFTDNYTRLRKQVAAKKYLQSIKNKRYGGPSSGAPPPS [Agonist P223] |  | 1.52 |  |  |  |
| Hexanoyl-HSDIVFTDNYTRLRKQVAAKKYLQSIKNKRYGGPSSGAPPPS [Agonist P221] |  | 0.87 |  |  |  |
| Hexanoyl-HSDAVFTDNYTRLRKQVAAKK[Aib]LQSIKNKRYGGPSSGAPPPS [Agonist P228] |  | <5.00 |  |  |  |
| CCCCCC(=O)N[C@@H](Cc1c[nH]cn1)C(=O)N[C@@H](CO)C(=O)N[C@@H](CC(=O)O)C(=O)N[C@@H](C)C(=O)N[C@H](C(=O)N[C@@H](Cc1ccccc1)C(=O)N[C@H](C(=O)N[C@@H](CC(=O)O)C(=O)N[C@@H](CC(N)=O)C(=O)N[C@@H](Cc1ccc(O)cc1)C(=O)N[C@H](C(=O)N[C@@H](CCCNC(=N)N)C(=O)N[C@@H](CC(C)C)C(=O)N[C@@H](CCCNC(=N)N)C(=O)N[C@@H](CCCCN)C(=O)N[C@@H](CCC(N)=O)C(=O)N[C@H](C(=O)N[C@@H](C)C(=O)N[C@@H](C)C(=O)N[C@@H](CCCCN)C(=O)N[C@@H](CCCCN)C(=O)N[C@@H](Cc1ccc(O)cc1)C(=O)N[C@@H](CC(C)C)C(=O)N[C@@H](CCC(N)=O)C(=O)N[C@@H](CO)C(=O)N[C@H](C(=O)N[C@@H](CCCCN)C(=O)N[C@@H](CC(N)=O)C(=O)NCC(=O)N[C@@H](CCCNC(=N)N)C(=O)N1CCC[C@H]1C(=O)N[C@@H](CO)C(=O)N[C@@H](CO)C(=O)NCC(=O)N[C@@H](C)C(=O)N1CCC[C@H]1C(=O)N1CCC[C@H]1C(=O)N1CCC[C@H]1C(=O)N[C@@H](CO)C(=O)O)[C@@H](C)CC)C(C)C)[C@@H](C)O)[C@@H](C)O)C(C)C [Agonist P271] (Hexanoyl-HSDAVFTDNYTRLRKQVAAKKYLQSIKNGRPSSGAPPPS-OH; C-terminus assumed) | 0.12 |  | 67.6 | 0.14 | 352 |
| Hexanoyl-H[dA]DAVFTDNYTRLRKQVAAKKYLQSIKNKRYGGPSSGAPPPS [Agonist P101] | 0.21 |  | 93.6 | 0.18 | 274 |
| Hexanoyl-HSDAVFTDNYTRLRKQVAAKKYLQNIKNKRYGGPSSGAPPPS [Agonist P125] | 0.14 |  | 179 | 0.19 | 300 |
| Hexanoyl-HSDAVFTDNYTRLRKQVAAKKYLQS[Aib]KNKRYGGPSSGAPPPS [Agonist P188] | 0.32 |  | 6.19 | 0.29 | 700 |
| Hexanoyl-HSDAVFTDNYTRLKAQVAAKKYLQSIKNKRYGGPSSGAPPPS [Agonist P141] | 0.72 |  | 25.9 | 0.64 | 658 |
| Hexanoyl-HSDAVFTDNYT[Aib]LR[Aib]QVAA[Aib]KYLQSIKNKRYGGPSSGAPPPS [Agonist P345] |  | 20.23 | > 3000 | 19.3 |  |
| CCCCCC(=O)N[C@@H](Cc1c[nH]cn1)C(=O)N[C@@H](CO)C(=O)N[C@@H](CC(=O)O)C(=O)N[C@@H](C)C(=O)N[C@H](C(=O)N[C@@H](Cc1ccccc1)C(=O)N[C@H](C(=O)N[C@@H](CC(=O)O)C(=O)N[C@@H](CC(N)=O)C(=O)N[C@@H](Cc1ccc(O)cc1)C(=O)N[C@H](C(=O)N[C@@H](CCCNC(=N)N)C(=O)N[C@@H](CC(C)C)C(=O)N[C@@H](CCCNC(=N)N)C(=O)N[C@@H](CCCCN)C(=O)N[C@@H](CCC(N)=O)C(=O)N[C@@H](CCSC)C(=O)N[C@@H](C)C(=O)N[C@@H](C)C(=O)N[C@@H](CCC(N)=O)C(=O)N[C@@H](CCCCN)C(=O)N[C@@H](Cc1ccc(O)cc1)C(=O)N[C@@H](CC(C)C)C(=O)N[C@@H](CC(N)=O)C(=O)N[C@@H](CCC(N)=O)C(=O)N[C@@H](CC(C)C)C(=O)N[C@@H](CCCCN)C(=O)N[C@@H](CCCCN)C(=O)NCC(=O)NCC(=O)N1CCC[C@H]1C(=O)N[C@@H](CO)C(=O)N[C@@H](CO)C(=O)NCC(=O)N[C@@H](C)C(=O)N1CCC[C@H]1C(=O)N1CCC[C@H]1C(=O)N1CCC[C@H]1C(=O)N[C@@H](CO)C(=O)O)[C@@H](C)O)[C@@H](C)O)C(C)C [Agonist P143] (Hexanoyl-HSDAVFTDNYTRLRKQMAAQKYLNQLKKGGPSSGAPPPS-OH; C-terminus assumed) | 0.1 |  | 605 | 0.5 | 1080 |
| Hexanoyl-HSDAVFTDNYTRLRKQVAAKKYLQSTKNKRYGGPSSGAPPPS [Agonist P108] | 0.27 |  | 332 | 0.45 | 486 |
